Measurements as given in the supplement of paper PMC10307832.

Experiments:
Assay in all cases: relative viability (nuclei count vs DMSO), 5 days (fraction); higher = more cells survive
Elesclomol + Navitoclax = compound: CN(NC(=O)CC(=O)NN(C)C(=S)c1ccccc1)C(=S)c1ccccc1 [Elesclomol] + CC1(C)CCC(c2ccc(Cl)cc2)=C(CN2CCN(c3ccc(C(=O)NS(=O)(=O)c4ccc(N[C@H](CCN5CCOCC5)CSc5ccccc5)c(S(=O)(=O)C(F)(F)F)c4)cc3)CC2)C1 [Navitoclax] (partner 0.5 µM)
How it was run: (§1)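 Relative viability equals treated-well nuclei counts divided by vehicle-well nuclei counts. Counts came from 4× images of lung cancer cell lines grown in 1536-well plates for 5 days after pin-tool dosing on the day after seeding. Dosing used one drug alone or a fixed anchor-drug dose plus five library-drug doses (not always all listed) in √10 steps, and values are medians of duplicate plates.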

Elesclomol + Foretinib = compound: CN(NC(=O)CC(=O)NN(C)C(=S)c1ccccc1)C(=S)c1ccccc1 [Elesclomol] + COc1cc2c(Oc3ccc(NC(=O)C4(C(=O)Nc5ccc(F)cc5)CC4)cc3F)ccnc2cc1OCCCN1CCOCC1 [Foretinib] (partner 0.25 µM)
How it was run: as §1

Elesclomol + Dasatinib = compound: CN(NC(=O)CC(=O)NN(C)C(=S)c1ccccc1)C(=S)c1ccccc1 [Elesclomol] + Cc1nc(Nc2ncc(C(=O)Nc3c(C)cccc3Cl)s2)cc(N2CCN(CCO)CC2)n1 [Dasatinib] (partner 0.075 µM)
How it was run: as §1

Elesclomol + Decitabine = compound: CN(NC(=O)CC(=O)NN(C)C(=S)c1ccccc1)C(=S)c1ccccc1 [Elesclomol] + Nc1ncn([C@H]2C[C@H](O)[C@@H](CO)O2)c(=O)n1 [Decitabine] (partner 2 µM)
How it was run: as §1

Elesclomol + Olaparib = compound: CN(NC(=O)CC(=O)NN(C)C(=S)c1ccccc1)C(=S)c1ccccc1 [Elesclomol] + O=C(c1cc(Cc2n[nH]c(=O)c3ccccc23)ccc1F)N1CCN(C(=O)C2CC2)CC1 [Olaparib] (partner 8 µM)
How it was run: as §1

Cell Line	relative viability (Elesclomol + Navitoclax; first compound 0.003162 µM)	relative viability (Elesclomol + Navitoclax; first compound 0.01 µM)	relative viability (Elesclomol + Navitoclax; first compound 0.03162 µM)	relative viability (Elesclomol + Navitoclax; first compound 0.1 µM)	relative viability (Elesclomol + Foretinib; first compound 0.003162 µM)	relative viability (Elesclomol + Foretinib; first compound 0.01 µM)	relative viability (Elesclomol + Foretinib; first compound 0.03162 µM)	relative viability (Elesclomol + Foretinib; first compound 0.1 µM)	relative viability (Elesclomol + Dasatinib; first compound 0.003162 µM)	relative viability (Elesclomol + Dasatinib; first compound 0.01 µM)	relative viability (Elesclomol + Dasatinib; first compound 0.03162 µM)	relative viability (Elesclomol + Dasatinib; first compound 0.1 µM)	relative viability (Elesclomol + Decitabine; first compound 0.003162 µM)	relative viability (Elesclomol + Decitabine; first compound 0.01 µM)	relative viability (Elesclomol + Decitabine; first compound 0.03162 µM)	relative viability (Elesclomol + Decitabine; first compound 0.1 µM)	relative viability (Elesclomol + Olaparib; first compound 0.003162 µM)	relative viability (Elesclomol + Olaparib; first compound 0.01 µM)	relative viability (Elesclomol + Olaparib; first compound 0.03162 µM)	relative viability (Elesclomol + Olaparib; first compound 0.1 µM)
HCC-366	1.06	1.07	1.02	0.137	0.893	0.945	0.899	0.0283	0.596	0.624	0.542	0.029	0.39	0.31	0.0994	0.0263	0.369	0.31	0.108	0.0162
NCI-H1651	0.971	0.525	0.137	0.0728	0.727	0.436	0.0766	0.0932	0.343	0.258	0.115	0.0916	0.596	0.608	0.577	0.4	0.185	0.184	0.192	0.135
LC-2-ad	0.521	0.213	0.062	0.099	0.697	0.411	0.267	0.286	0.492	0.196	0.202	0.179	0.763	0.653	0.391	0.218	0.722	0.622	0.277	0.197
HCC-827	1.02	0.995	1	0.756	0.991	0.913	1.12	0.683	0.253	0.217	0.276	0.425	0.344	0.35	0.283	0.252	0.58	0.522	0.672	0.475
SK-LU-1	1.08	0.704	0.167	0.172	0.803	0.668	0.459	0.193	0.199	0.197	0.161	0.0738	0.679	0.575	0.481	0.468	0.468	0.373	0.378	0.249
COR-L 105	0.682	0.427	0.421	0.236	0.985	0.698	0.44	0.176	0.303	0.248	0.21	0.079	0.666	0.465	0.337	0.303	0.713	0.575	0.365	0.275
LOU-NH91	0.672	0.465	0.307	0.282	0.902	0.868	0.862	0.807	0.546	0.52	0.428	0.432	0.868	0.775	0.756	0.72	0.898	0.825	0.829	0.606
LU99A	0.79		0.881	0.132	0.883	0.625	0.815	0.234	0.569	0.39	0.512	0.185	0.904	0.807	0.794	0.556	0.286	0.223	0.247	0.173
NCI-H1650	0.734	0.331	0.168	0.0893	0.525	0.306	0.132	0.136	0.21	0.17	0.156	0.154	0.306	0.219	0.16	0.0942	0.583	0.291	0.145	0.0879
SW 1573	0.918	0.102	0.0652	0.0513	0.769	0.65	0.165	0.0891	0.192	0.094	0.043	0.0143	0.173	0.111	0.0529	0.0067	0.201	0.146	0.0695	0.0085
HOP-62	0.904	0.553	0.647	0.302	1.12	0.948	0.677	0.349	0.678	0.638	0.458	0.213	0.189	0.231	0.214	0.137	0.487	0.191	0.0744	0.08
UMC-11	0.277	0.311	0.22	0.143	1.01	0.91	0.789	0.482	0.439	0.423	0.374	0.235	0.674	0.582	0.276	0.359	0.54	0.338	0.279	0.266
NCI-H1734	0.852	0.841	0.636	0.0859	0.882	0.679	0.221	0.126	0.473	0.421	0.144	0.113	0.483	0.445	0.188	0.101	0.586	0.519	0.165	0.0747
EKVX	0.875	0.658	0.289	0.205	0.779	0.736	0.398	0.189	0.474	0.315	0.226	0.202	0.395	0.222	0.148	0.132	0.713	0.364	0.193	0.106
HARA	1.16	1.17	0.884	0.267	0.875	0.878	0.691	0.238	0.244	0.312	0.283	0.0991	0.562	0.584	0.271	0.158	0.774	0.524	0.417	0.36
EMC-BAC-2	1.2	1.06	1.06	0.604	1.1	0.877	0.784	0.392	0.361	0.28	0.286	0.138	0.933	0.804		0.408	0.445	0.345	0.381	0.288

Cell Line	relative viability (Elesclomol + Navitoclax; first compound 0.003162 µM)	relative viability (Elesclomol + Navitoclax; first compound 0.01 µM)	relative viability (Elesclomol + Navitoclax; first compound 0.03162 µM)	relative viability (Elesclomol + Navitoclax; first compound 0.1 µM)	relative viability (Elesclomol + Foretinib; first compound 0.003162 µM)	relative viability (Elesclomol + Foretinib; first compound 0.01 µM)	relative viability (Elesclomol + Foretinib; first compound 0.03162 µM)	relative viability (Elesclomol + Foretinib; first compound 0.1 µM)	relative viability (Elesclomol + Dasatinib; first compound 0.003162 µM)	relative viability (Elesclomol + Dasatinib; first compound 0.01 µM)	relative viability (Elesclomol + Dasatinib; first compound 0.03162 µM)	relative viability (Elesclomol + Dasatinib; first compound 0.1 µM)	relative viability (Elesclomol + Decitabine; first compound 0.003162 µM)	relative viability (Elesclomol + Decitabine; first compound 0.01 µM)	relative viability (Elesclomol + Decitabine; first compound 0.03162 µM)	relative viability (Elesclomol + Decitabine; first compound 0.1 µM)	relative viability (Elesclomol + Olaparib; first compound 0.003162 µM)	relative viability (Elesclomol + Olaparib; first compound 0.01 µM)	relative viability (Elesclomol + Olaparib; first compound 0.03162 µM)	relative viability (Elesclomol + Olaparib; first compound 0.1 µM)
PC-14	0.977	0.719	0.0635	0.0562	1.02	0.827	0.484	0.0715	0.0703	0.0327	0.0099	0.0111	0.126	0.0523	0.0385	0.0283	0.287	0.0846	0.0176	0.0205
NCI-H520	1.08	0.939	0.587	0.162	0.757	0.771	0.251	0.111	0.166	0.158	0.138	0.0789	0.526	0.411	0.313	0.143	0.333	0.32	0.152	0.0887
NCI-H1755	0.968	0.847	0.82	0.158	0.935	0.887	0.922	0.474	0.446	0.357	0.433	0.214	0.704	0.808	0.689	0.598	0.87	0.813	0.938	0.692
NCI-H2087	0.924	0.728	0.499	0.469	0.936	0.767	0.577	0.299	0.815	0.502	0.41	0.152	0.379	0.226	0.175	0.082	0.55	0.264	0.334	0.082
NCI-H2023	0.99	0.455	0.111	0.102	0.67	0.565	0.0376	0.051	0.421	0.117	0.0528	0.0413	0.219	0.181	0.0903	0.0614	0.465	0.272	0.143	0.102
NCI-H2085	1.22	0.725	0.657	0.312	1.09	0.658	0.462	0.271	0.242	0.235	0.273	0.235	0.561	0.449	0.355	0.297	0.874	0.669	0.497	0.282
LCLC-97TM1	0.368	0.298	0.253	0.115	0.986	0.952	0.909	0.418	0.854	0.765	0.798	0.264	0.258	0.198	0.211	0.131	0.402	0.295	0.379	0.0862
NCI-H2126	0.89	0.826	0.908	0.827	1.19	0.943	0.435	0.201	0.659	0.512	0.3	0.215	0.538	0.616	0.558	0.593	0.913	0.886	0.887	0.777
201T	1.16	1.16	1.23	1.16	0.945	0.671	0.265	0.265	0.535	0.587	0.543	0.236	0.869	0.844	0.818	0.854	0.843	0.843	0.844	0.705
NCI-H1915	0.784		0.792	0.799	1.05		1.08	0.793	0.337		0.317	0.21	0.254	0.265	0.277	0.205	0.256	0.243	0.231	0.169
BEN	0.049	0.0566	0.0364	0.0268	0.493	0.467	0.296	0.265	0.359	0.204	0.219	0.159	0.677	0.483	0.419	0.333	0.828	0.68	0.656	0.362
NCI-H2347	0.809	0.668	0.905	0.299	1.06	0.701	0.482	0.942	0.29	0.373	0.287	0.185	0.662	0.56	0.534	0.475	0.591	0.463	0.525	0.339
H3255	0.629	0.457	0.171	0.128	0.765	0.884	0.57	0.398	0.387	0.396	0.274	0.222	0.617	0.486	0.296	0.243	0.488	0.456	0.482	0.316
NCI-H441	0.712	0.469	0.253	0.103	1.07	0.924	0.513	0.127	0.547	0.656	0.451	0.0877	0.22	0.209	0.216	0.127	0.48	0.602	0.311	0.148
NCI-H1975	1	1.1	0.209	0.12	0.943	0.832	0.311	0.164	0.344	0.223	0.163	0.0599	0.387	0.386	0.308	0.189	0.752	0.633	0.337	0.183
